# Counter-ions that a name gives are not always drawn.
# T1: purified human neutrophil elastase (Homo sapiens, UniProt P08246)
# T1 sequence (P08246 30-247 limits assumed): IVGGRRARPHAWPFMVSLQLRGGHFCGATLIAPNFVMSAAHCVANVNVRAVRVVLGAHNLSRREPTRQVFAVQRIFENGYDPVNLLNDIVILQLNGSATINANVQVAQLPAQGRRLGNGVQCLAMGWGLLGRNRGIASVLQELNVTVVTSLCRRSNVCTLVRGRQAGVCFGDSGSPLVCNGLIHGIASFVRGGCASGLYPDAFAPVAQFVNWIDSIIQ
# B1: reduced rhTrx: stable reduced form of recombinant human thioredoxin used as a single component (protein, UniProt P10599 2-105, looked up)
# Thioredoxin: VKQIESKTAFQEALDAAGDKLVVVDFSATWCGPCKMIKPFFHSLSEKYSNVIFLEVDVDDCQDVASECEVKCMPTFQFFKKGQKVGEFSGANKEKLEATINELV
# modifications: reduced form
# Columns and labels:
# cancer = settings: cited from earlier work
# [1] = target: T1, purified human neutrophil elastase; settings: cited from earlier work
# [2] = system: sol elastase of CF sputum; settings: unprocessed CF sputum directly treated; cited from earlier work
# SCLC = settings: oral 600 mg daily up to 12 months; cited from earlier work
# c-kit = c-kit (Homo sapiens, UniProt P10721); settings: cited from earlier work
# [3] = system: primary human fibroblasts; assay: PDGF-induced fibroblast proliferation (MTS assay); settings: for Proliferation (relative proliferation), Short Duration / Proliferation (relative proliferation), Long Duration: 20 ng/mL PDGF-BB, 72 hours, MTS; for inhibiting PDGF-induced fibroblast proliferation (in words) / cytotoxicity of drug concentrations tested: 0.5 to 50 nM; for cytotoxicity of drug concentrations tested: data not shown; for IC50: read-out: fifty-percent inhibitory concentration (IC50), PDGF-induced fibroblast proliferation, short-term exposure
# newly diagnosed CML = settings: cytogenetic and haematological response, time to progression; cited from earlier work
# [4] = system: COL1A1-PDGFβ-transformed fibroblasts, DFSP and giant-cell fibrosarcoma cell cultures; settings: in vitro and in vivo; cited from earlier work
# [5] = system: bleomycin-induced pulmonary fibrosis; settings: both agents from Days 14; cited from earlier work
# lung fibroblasts = settings: 800 μg/ml of AGP, in vitro; cited from earlier work
# [6] = intravenous; cited from earlier work
# [7] = system: relapsed/refractory multiple myeloma; settings: cited from earlier work
# [8] = 0.5 nM drug 30 min pretreatment then washed
# [9] = 5.0 nM drug 30 min pretreatment then washed
# [10] = 50.0 nM drug 30 min pretreatment then washed
# [11] = bortezomib 1.3 mg/m2 vs high-dose dexamethasone
# Chain of c-kit (P10721 26-976): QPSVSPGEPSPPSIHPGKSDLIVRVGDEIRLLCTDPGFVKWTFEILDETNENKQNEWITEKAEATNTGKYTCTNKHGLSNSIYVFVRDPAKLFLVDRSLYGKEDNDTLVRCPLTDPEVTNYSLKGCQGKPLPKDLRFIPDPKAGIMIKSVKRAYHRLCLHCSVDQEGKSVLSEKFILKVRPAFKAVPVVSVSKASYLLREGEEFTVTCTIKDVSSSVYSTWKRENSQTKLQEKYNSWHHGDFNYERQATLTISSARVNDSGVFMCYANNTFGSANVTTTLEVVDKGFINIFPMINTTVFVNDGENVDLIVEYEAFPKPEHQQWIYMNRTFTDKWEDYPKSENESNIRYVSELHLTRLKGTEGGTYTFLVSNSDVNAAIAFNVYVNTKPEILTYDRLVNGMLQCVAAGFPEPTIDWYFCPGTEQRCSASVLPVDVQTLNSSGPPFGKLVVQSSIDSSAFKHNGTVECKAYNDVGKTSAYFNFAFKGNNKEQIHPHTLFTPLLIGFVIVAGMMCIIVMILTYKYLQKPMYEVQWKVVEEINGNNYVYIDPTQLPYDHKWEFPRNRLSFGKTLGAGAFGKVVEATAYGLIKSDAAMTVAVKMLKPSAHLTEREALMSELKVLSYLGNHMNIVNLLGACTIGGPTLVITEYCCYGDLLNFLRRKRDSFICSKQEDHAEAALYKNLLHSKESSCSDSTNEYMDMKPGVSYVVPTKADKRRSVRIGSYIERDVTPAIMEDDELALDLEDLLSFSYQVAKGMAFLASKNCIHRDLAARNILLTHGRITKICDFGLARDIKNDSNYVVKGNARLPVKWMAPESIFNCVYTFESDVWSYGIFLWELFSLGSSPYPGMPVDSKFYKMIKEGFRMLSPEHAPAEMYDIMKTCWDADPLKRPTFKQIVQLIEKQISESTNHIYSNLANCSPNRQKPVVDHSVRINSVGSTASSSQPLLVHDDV
molecule,measurement,setting,value
N#CC1(c2ccc(NC(=O)c3cccnc3NCc3ccncc3)cc2)CCCC1 [Apatinib],dose limiting toxicities,cancer; 1000 mg/day,3 of 3
same,complete response,"cancer; 65 cancer patients, Phase I/II",1.54%
same,partial response,"cancer; 65 cancer patients, Phase I/II",12.31%
same,progressive disease,"cancer; 65 cancer patients, Phase I/II",20%
same,stable disease,"cancer; 65 cancer patients, Phase I/II",66.15%
same,maximum tolerated dose,"cancer; human, in vivo",850 mg/day
"O=C(O)CCCC[C@@H](S)CCS (racemic) [DHLA, dihydrolipoic acid]",inhibition of purified human neutrophil elastase (in words),[1],inhibited
same,increase of sol elastase activity,[2],did not increase
Cc1ccc(NC(=O)c2ccc(CN3CCN(C)CC3)cc2)cc1Nc1nccc(-c2cccnc2)n1 [imatinib mesylate],antitumor activity,SCLC,no observed antitumor activity
same,signal transduction cascade triggered by c-kit activation,c-kit,sufficiently blocked
COC(=O)c1ccc2c(c1)NC(=O)/C2=C(\Nc1ccc(N(C)C(=O)CN2CCN(C)CC2)cc1)c1ccccc1 [Vargatef],"Proliferation (relative proliferation), Short Duration",[3]; [8],0.115
same,"Proliferation (relative proliferation), Long Duration",[3]; 0.5 nM drug kept in media,0.003
same,"Proliferation (relative proliferation), Short Duration",[3]; [9],0.011
same,"Proliferation (relative proliferation), Long Duration",[3]; 5.0 nM drug kept in media,−0.359
same,"Proliferation (relative proliferation), Short Duration",[3]; [10],−0.175
same,"Proliferation (relative proliferation), Long Duration",[3]; 50.0 nM drug kept in media,−0.642
same,inhibiting PDGF-induced fibroblast proliferation (in words),[3],dose-responsive
same,cytotoxicity of drug concentrations tested,[3],not cytotoxic
same,IC50,[3],~3 nM
DNase,increase of sol elastase activity,[2],190%
Cc1ccc(NC(=O)c2ccc(CN3CCN(C)CC3)cc2)cc1Nc1nccc(-c2cccnc2)n1 [Glivec],efficacy vs interferon and low-dose cytarabine,newly diagnosed CML,superior efficacy
same,effect on cells,[4],inhibited
CC[C@H]1OC(=O)[C@H](C)[C@@H](O[C@H]2C[C@@](C)(OC)[C@@H](O)[C@H](C)O2)[C@H](C)[C@@H](O[C@@H]2O[C@H](C)C[C@H](N(C)C)[C@H]2O)[C@](C)(OC)C[C@@H](C)C(=O)[C@H](C)[C@@H](O)[C@]1(C)O [clarithromycin],"bleomycin-induced pulmonary fibrosis, combined use with imatinib",[5],attenuated
same,concentration required to abrogate the effects of AGP,lung fibroblasts,> 10 µM
CC(C)C[C@H](NC(=O)[C@H](Cc1ccccc1)NC(=O)c1cnccn1)B(O)O [Bortezomib],clearance,[6],rapidly cleared
same,time to peak concentrations,[6],about 30 minutes
same,1-year survival,[7]; [11],80%
same,median TTP,[7]; [11],6.2 months
same,patients with peripheral neuropathy,"[7]; human, in vivo",30%
CC[C@H]1OC(=O)[C@H](C)[C@@H](O[C@H]2C[C@@](C)(OC)[C@@H](O)[C@H](C)O2)[C@H](C)[C@@H](O[C@@H]2O[C@H](C)C[C@H](N(C)C)[C@H]2O)[C@](C)(O)C[C@@H](C)C(=O)[C@H](C)[C@@H](O)[C@]1(C)O [erythromycin],"bleomycin-induced pulmonary fibrosis, combined use with imatinib",[5],attenuated
same,concentration required to abrogate the effects of AGP,lung fibroblasts,more than 1 μM
"CNC(=O)c1cc(Oc2ccc(NC(=O)Nc3ccc(Cl)c(C(F)(F)F)c3)cc2)ccn1 [Sorafinib, sorafinib]","Proliferation (relative proliferation), Short Duration",[3]; [8],0.117
same,"Proliferation (relative proliferation), Long Duration",[3]; 0.5 nM drug kept in media,0.313
same,"Proliferation (relative proliferation), Short Duration",[3]; [9],−0.010
same,"Proliferation (relative proliferation), Long Duration",[3]; 5.0 nM drug kept in media,0.175
same,"Proliferation (relative proliferation), Short Duration",[3]; [10],−0.147
same,"Proliferation (relative proliferation), Long Duration",[3]; 50.0 nM drug kept in media,0.130
same,inhibiting PDGF-induced fibroblast proliferation (in words),[3],dose-responsive
same,cytotoxicity of drug concentrations tested,[3],not cytotoxic
same,IC50,[3],~30 nM
B1,inhibition of purified human neutrophil elastase (in words),[1],inhibited
same,increase of sol elastase activity,[2],60%

# Reference: US11980689B2 (AVALYN PHARMA INC., priority 2013, dated 2024)
